4 compounds from ChEMBL document CHEMBL5678807, “A selective jumonji H3K27 demethylase inhibitor modulates the proinflammatory macrophage response” (Nature, 2012) can be followed below.

The target of data set [1] is Lysine-specific demethylase 5C (Homo sapiens, UniProt P41229). Description: Inhibition of human Jarid1c by MALDI-TOF analysis.
The target of data set [2] is Kappa-type opioid receptor (Homo sapiens, UniProt P41145). Briefly: Antagonist activity at human OPRK-1 by SPA. The data set is classed as functional.
Data set [3] concerns the target T1, 5-hydroxytryptamine receptor 2C (Homo sapiens, UniProt P28335).
T1 sequence (P28335 whole entry): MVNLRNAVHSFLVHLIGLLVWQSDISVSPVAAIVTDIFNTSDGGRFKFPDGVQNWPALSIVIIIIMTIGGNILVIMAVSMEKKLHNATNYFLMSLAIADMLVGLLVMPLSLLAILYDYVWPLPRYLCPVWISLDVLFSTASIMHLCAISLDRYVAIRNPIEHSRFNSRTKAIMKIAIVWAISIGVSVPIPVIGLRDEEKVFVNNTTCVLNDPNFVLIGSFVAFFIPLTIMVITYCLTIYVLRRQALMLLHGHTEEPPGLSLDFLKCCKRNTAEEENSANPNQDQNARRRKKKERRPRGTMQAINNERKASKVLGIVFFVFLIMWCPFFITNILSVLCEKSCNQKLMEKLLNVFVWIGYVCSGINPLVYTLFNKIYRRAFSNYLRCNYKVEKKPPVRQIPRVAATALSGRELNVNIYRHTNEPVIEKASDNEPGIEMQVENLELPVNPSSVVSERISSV
Briefly: Agonist activity at human 5-HT2C by intracellular Ca luminescence assay. The data set is classed as functional, cell-based.

In data set [4] the target is Alpha-2C adrenergic receptor (Homo sapiens, UniProt P18825). Briefly: Agonist activity at human alpha 2C adrenoceptor by TR-FRET assay. Background: TR-FRET usually uses a lanthanide donor and a delayed reading to cut background.
Data set [5] concerns the target T2, Mu-type opioid receptor (Homo sapiens, UniProt P35372). Description: Antagonist activity at human OPRM-1 by SPA. The data set is classed as functional.
Data set [6] addresses T2, Mu-type opioid receptor. Description: Agonist activity at human OPRM-1 by SPA. The data set is classed as functional.
Data set [7] deals with Aryl hydrocarbon receptor (Homo sapiens, UniProt P35869). Briefly: Agonist activity at human AhR by TR-FRET assay.
Another data set deals with D(1A) dopamine receptor (Homo sapiens, UniProt P21728). Description: Antagonist activity at human dopamine 1 receptor by TR-FRET assay. Format: functional.
For data set [8], the target named is Acetylcholine receptor subunit alpha (Homo sapiens, UniProt P02708). Briefly: Agonist activity at human alpha 1 nAChR by intracellular Ca fluorescence assay. The data set is classed as cell-based.
Data set [9] deals with 5-hydroxytryptamine receptor 2A (Homo sapiens, UniProt P28223). Briefly: Agonist activity at human 5-HT2A by intracellular Ca luminescence assay. The data set is classed as functional, cell-based.
For data set [10], the target named is Lysine-specific histone demethylase 1A (Homo sapiens, UniProt O60341). Description: Inhibition of human LSD-1 by luminescence assay.
A further data set has as its target Adenosine receptor A2a (Homo sapiens, UniProt P29274). Description: Agonist activity at human adenosine A2a by TR-FRET assay. The data set is classed as functional.
For data set [11], the target named is Lysine-specific demethylase 6A (Homo sapiens, UniProt O15550). Briefly: Inhibition of human UTX using Biotin-KAPRKQLATKAARK(me3)SAPATGG as substrate by MALDI-TOF analysis.
In another data set the target is OATP1B1 (SLCO1B1) (Homo sapiens, UniProt Q9Y6L6). Description: Blockade of human OATP1B1 by imaging analysis.
In data set [12] the target is Lysine-specific demethylase 4A (Homo sapiens, UniProt O75164). Description: Inhibition of human JmjD2a by Alphascreen assay. (In general: Bead proximity is the source of the signal in Alpha formats.)
The subject of data set [13] is Macrophage. Description: Antiinflammatory activity in human primary macrophages assessed as effect on LPS-induced IFNA2 gene expression at 30 uM measured after 2 hrs by RT-PCR array (reference value: 1099 a.u.). Format: functional.
In data set [14] the test system is Macrophage. Description: Antiinflammatory activity in human primary macrophages assessed as effect on LPS-induced IFNB1 gene expression at 30 uM measured after 2 hrs by RT-PCR array (reference value: 1415030 a.u.). Format: functional.
For data set [15], the system named is Macrophage. Description: Antiinflammatory activity in human primary macrophages assessed as effect on LPS-induced FAM3B gene expression at 30 uM measured after 2 hrs by RT-PCR array (reference value: 996 a.u.). The data set is classed as functional.
Data set [16] relates to Macrophage. Briefly: Antiinflammatory activity in human primary macrophages assessed as effect on LPS-induced IL16 gene expression at 30 uM measured after 2 hrs by RT-PCR array (reference value: 8635 a.u.). The data set is classed as functional.
For data set [17], the system named is Macrophage. Description: Antiinflammatory activity in human primary macrophages assessed as effect on LPS-induced TNFRSF11B gene expression at 30 uM measured after 2 hrs by RT-PCR array (reference value: 1609 a.u.). Format: functional.
In data set [18] the test system is Macrophage. Briefly: Antiinflammatory activity in human primary macrophages assessed as effect on LPS-induced IL12B gene expression at 30 uM measured after 2 hrs by RT-PCR array (reference value: 17908 a.u.). The data set is classed as functional.
Data set [19] has as its system Macrophage. Briefly: Antiinflammatory activity in human primary macrophages assessed as effect on LPS-induced IL12A gene expression at 30 uM measured after 2 hrs by RT-PCR array (reference value: 7097 a.u.). The data set is classed as functional.
For data set [20], the system named is Macrophage. Description: Antiinflammatory activity in human primary macrophages assessed as effect on LPS-induced IFNK gene expression at 30 uM measured after 2 hrs by RT-PCR array (reference value: 724 a.u.). The data set is classed as functional.
The test system of data set [21] is Macrophage. Description: Antiinflammatory activity in human primary macrophages assessed as effect on LPS-induced TNFSF14 gene expression at 30 uM measured after 2 hrs by RT-PCR array (reference value: 5963 a.u.). Format: functional.
Data set [22] deals with Macrophage. Briefly: Antiinflammatory activity in human primary macrophages assessed as effect on LPS-induced TGFB3 gene expression at 30 uM measured after 2 hrs by RT-PCR array (reference value: 524 a.u.). Format: functional.
The subject of data set [23] is Macrophage. Description: Antiinflammatory activity in human primary macrophages assessed as effect on LPS-induced TGFB1 gene expression at 30 uM measured after 2 hrs by RT-PCR array (reference value: 72816 a.u.). Format: functional.
For data set [24], the system named is Macrophage. Description: Antiinflammatory activity in human primary macrophages assessed as effect on LPS-induced TNFSF8 gene expression at 30 uM measured after 2 hrs by RT-PCR array (reference value: 248127 a.u.). Format: functional.
For data set [25], the system named is Macrophage. Description: Antiinflammatory activity in human primary macrophages assessed as effect on LPS-induced CSF2 gene expression at 30 uM measured after 2 hrs by RT-PCR array (reference value: 248134 a.u.). Format: functional.
In data set [26] the test system is Macrophage. Briefly: Antiinflammatory activity in human primary macrophages assessed as effect on LPS-induced IL15 gene expression at 30 uM measured after 2 hrs by RT-PCR array (reference value: 62425 a.u.). The data set is classed as functional.
The test system of data set [27] is Macrophage. Briefly: Antiinflammatory activity in human primary macrophages assessed as effect on LPS-induced TGFB2 gene expression at 30 uM measured after 2 hrs by RT-PCR array (reference value: 7625 a.u.). Format: functional.
Data set [28] concerns Macrophage. Description: Antiinflammatory activity in human primary macrophages assessed as effect on LPS-induced IL1F7 gene expression at 30 uM measured after 2 hrs by RT-PCR array (reference value: 192 a.u.). Format: functional.
Data set [29] in a line: Prodrug conversion in human primary macrophage lysates assessed as formation of GSK-J1 at 30 uM measured after 1 hr by RP LC-MS/MS analysis. The data set is classed as ADME, subcellular.

Each structure is given as a SMILES string.

T2 sequence (P35372 whole entry): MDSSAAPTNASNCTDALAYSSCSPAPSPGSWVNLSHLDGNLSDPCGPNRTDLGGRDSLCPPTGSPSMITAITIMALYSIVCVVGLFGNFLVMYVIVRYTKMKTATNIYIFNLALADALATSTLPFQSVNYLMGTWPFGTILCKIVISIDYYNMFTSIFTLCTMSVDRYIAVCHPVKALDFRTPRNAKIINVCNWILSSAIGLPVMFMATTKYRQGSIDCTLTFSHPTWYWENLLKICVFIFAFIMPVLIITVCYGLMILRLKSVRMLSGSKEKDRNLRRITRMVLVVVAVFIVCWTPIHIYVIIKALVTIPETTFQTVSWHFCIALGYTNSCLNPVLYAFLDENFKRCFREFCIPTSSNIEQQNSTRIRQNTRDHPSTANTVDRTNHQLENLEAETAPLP
Acetylcholine receptor subunit alpha, sequence (P02708 whole entry): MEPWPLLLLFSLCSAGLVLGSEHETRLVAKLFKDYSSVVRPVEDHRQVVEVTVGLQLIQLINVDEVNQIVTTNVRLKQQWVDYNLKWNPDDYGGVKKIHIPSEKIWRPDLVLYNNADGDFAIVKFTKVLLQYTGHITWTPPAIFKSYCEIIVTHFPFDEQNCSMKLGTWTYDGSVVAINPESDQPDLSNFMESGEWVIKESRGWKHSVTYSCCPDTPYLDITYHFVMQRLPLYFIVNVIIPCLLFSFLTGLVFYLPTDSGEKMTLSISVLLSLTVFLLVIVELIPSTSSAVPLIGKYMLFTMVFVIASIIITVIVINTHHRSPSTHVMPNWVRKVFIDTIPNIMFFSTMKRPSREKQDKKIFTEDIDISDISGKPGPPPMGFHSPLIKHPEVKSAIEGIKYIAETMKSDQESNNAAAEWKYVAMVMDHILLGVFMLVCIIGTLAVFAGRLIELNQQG
5-hydroxytryptamine receptor 2A, sequence (P28223 whole entry): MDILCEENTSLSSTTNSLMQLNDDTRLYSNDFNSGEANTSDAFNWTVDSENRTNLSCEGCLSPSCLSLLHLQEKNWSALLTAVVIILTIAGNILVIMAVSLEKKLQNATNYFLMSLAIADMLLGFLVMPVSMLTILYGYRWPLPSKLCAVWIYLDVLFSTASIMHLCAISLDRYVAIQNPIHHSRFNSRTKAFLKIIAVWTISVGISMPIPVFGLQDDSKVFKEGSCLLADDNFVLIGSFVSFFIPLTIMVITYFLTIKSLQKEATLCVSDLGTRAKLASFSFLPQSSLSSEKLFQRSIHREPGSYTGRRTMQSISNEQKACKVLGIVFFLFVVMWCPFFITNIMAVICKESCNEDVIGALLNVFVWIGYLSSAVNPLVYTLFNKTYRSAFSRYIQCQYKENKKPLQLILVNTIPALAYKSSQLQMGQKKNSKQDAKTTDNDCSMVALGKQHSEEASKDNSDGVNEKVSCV
Alpha-2C adrenergic receptor, sequence (P18825 whole entry): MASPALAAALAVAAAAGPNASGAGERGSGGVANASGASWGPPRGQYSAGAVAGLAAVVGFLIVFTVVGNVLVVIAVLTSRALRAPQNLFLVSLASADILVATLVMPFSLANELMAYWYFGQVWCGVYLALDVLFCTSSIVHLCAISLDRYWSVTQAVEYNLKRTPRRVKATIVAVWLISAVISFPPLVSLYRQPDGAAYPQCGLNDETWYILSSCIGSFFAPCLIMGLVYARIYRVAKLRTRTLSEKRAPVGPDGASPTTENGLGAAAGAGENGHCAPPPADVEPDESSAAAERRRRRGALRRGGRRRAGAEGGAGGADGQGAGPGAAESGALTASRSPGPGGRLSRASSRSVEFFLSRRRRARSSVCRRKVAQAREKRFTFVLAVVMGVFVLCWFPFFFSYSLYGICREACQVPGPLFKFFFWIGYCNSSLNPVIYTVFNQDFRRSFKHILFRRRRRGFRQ
Adenosine receptor A2a, sequence (P29274 whole entry): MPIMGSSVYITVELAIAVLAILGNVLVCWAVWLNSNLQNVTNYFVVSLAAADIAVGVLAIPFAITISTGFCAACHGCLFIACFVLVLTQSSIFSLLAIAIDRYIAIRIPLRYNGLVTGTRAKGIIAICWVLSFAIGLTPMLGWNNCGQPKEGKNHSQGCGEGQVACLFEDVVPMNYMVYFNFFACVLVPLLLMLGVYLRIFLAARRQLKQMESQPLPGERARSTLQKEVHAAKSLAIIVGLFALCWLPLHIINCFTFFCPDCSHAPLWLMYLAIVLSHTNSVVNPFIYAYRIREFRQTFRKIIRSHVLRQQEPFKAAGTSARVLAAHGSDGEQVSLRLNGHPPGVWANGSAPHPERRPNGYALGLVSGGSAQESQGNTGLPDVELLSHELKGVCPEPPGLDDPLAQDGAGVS
OATP1B1 (SLCO1B1), sequence (Q9Y6L6 whole entry): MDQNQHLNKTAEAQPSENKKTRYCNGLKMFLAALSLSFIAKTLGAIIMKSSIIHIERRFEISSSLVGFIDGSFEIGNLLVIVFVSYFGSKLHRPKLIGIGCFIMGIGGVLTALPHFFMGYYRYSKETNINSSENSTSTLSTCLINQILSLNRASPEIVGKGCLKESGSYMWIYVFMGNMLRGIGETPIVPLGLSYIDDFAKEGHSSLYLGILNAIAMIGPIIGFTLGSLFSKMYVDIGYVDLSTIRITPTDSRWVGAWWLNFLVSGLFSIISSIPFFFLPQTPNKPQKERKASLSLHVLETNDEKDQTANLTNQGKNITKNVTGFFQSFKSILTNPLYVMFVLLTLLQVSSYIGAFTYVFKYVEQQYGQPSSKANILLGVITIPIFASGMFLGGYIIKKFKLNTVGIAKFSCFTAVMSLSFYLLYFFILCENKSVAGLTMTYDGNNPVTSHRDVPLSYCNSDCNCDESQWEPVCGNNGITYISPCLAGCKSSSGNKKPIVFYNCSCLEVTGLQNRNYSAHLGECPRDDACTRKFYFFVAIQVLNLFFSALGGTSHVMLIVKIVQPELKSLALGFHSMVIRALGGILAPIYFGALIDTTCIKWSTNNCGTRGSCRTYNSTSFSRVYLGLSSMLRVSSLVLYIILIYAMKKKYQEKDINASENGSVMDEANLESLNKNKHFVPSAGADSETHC
Aryl hydrocarbon receptor, sequence (P35869 whole entry): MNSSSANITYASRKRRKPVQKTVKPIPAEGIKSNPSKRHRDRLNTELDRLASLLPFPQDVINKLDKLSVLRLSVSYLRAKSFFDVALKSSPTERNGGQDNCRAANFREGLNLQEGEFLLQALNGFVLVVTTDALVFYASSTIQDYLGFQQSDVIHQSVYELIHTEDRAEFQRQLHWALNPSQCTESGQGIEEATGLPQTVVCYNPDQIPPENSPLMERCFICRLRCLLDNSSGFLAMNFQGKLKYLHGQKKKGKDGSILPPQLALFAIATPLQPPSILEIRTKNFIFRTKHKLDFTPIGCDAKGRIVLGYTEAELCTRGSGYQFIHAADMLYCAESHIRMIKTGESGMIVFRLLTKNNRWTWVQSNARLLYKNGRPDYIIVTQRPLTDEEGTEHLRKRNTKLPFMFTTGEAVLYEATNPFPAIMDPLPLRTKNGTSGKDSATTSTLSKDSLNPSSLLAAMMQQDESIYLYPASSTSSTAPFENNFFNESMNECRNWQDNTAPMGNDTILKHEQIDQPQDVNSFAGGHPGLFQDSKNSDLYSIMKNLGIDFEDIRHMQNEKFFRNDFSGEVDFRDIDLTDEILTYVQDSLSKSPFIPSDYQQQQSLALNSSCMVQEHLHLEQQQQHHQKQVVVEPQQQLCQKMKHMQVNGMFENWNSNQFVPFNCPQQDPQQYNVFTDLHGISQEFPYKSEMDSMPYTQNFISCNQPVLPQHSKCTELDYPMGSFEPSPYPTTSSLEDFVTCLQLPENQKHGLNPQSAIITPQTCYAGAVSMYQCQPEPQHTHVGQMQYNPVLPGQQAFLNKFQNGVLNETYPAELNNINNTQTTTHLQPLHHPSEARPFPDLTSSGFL
D(1A) dopamine receptor, sequence (P21728 whole entry): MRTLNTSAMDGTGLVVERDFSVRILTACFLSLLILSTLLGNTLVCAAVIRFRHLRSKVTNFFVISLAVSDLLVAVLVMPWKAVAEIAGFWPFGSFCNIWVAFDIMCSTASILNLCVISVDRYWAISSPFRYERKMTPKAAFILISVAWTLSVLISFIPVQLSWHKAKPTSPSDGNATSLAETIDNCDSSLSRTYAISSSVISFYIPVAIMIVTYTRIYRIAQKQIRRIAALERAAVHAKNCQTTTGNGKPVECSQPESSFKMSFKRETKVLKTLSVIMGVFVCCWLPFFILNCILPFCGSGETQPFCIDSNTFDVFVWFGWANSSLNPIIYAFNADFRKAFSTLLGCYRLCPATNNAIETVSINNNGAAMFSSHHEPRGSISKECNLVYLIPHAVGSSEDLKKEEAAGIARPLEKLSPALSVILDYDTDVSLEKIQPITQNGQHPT
Kappa-type opioid receptor, sequence (P41145 whole entry): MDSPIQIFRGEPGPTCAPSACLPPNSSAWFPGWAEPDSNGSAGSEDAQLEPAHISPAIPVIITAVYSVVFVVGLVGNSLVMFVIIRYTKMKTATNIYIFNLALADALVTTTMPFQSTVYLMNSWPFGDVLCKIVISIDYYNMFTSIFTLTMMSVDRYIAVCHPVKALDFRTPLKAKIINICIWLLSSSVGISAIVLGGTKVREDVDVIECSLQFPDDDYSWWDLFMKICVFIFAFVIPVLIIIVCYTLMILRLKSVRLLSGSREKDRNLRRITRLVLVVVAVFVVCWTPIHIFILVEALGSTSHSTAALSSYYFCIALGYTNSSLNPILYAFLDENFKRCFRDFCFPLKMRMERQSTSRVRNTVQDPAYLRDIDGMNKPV

A word on the IC50: it is the concentration needed to halve the response being measured. A higher IC50 goes with weaker potency. Consider `O=C(O)CCNc1cc(N2CCc3ccccc3CC2)nc(-c2ccccn2)n1`, for which the IC50 was greater than 100 µM in data set [1], 56 µM in data set [11] and 44.3 µM in data set [12]. Besides, the XC50 was 50 µM in data set [2]; greater than 40 µM in data set [3]; greater than 32 µM in data set [4]; 50 µM at Mu-type opioid receptor [5]; greater than 100 µM at Mu-type opioid receptor [6]; greater than 100 µM in data set [7]. In addition, the XC50 is greater than 32 µM on D(1A) dopamine receptor; greater than 50 µM in data set [8]; greater than 40 µM in [9]; greater than 125 µM in data set [10]; greater than 32 µM on Adenosine receptor A2a; greater than 25 µM on OATP1B1 (SLCO1B1).

As to `CCOC(=O)CCNc1cc(N2CCc3ccccc3CC2)nc(-c2cccnc2)n1`, the Activity was 65 a.u with Macrophage [13]; 1501879 a.u in the data set with Macrophage [14]; 466 a.u in the data set with Macrophage [15]; 4600 a.u in the data set on Macrophage [16]; 784 a.u with Macrophage [17]; 17395 a.u with Macrophage [18]. Moreover, the Activity in the data set on Macrophage [19] amounted to 5021 a.u; in the data set on Macrophage [20], 339 a.u; in the data set with Macrophage [21] it was 5331 a.u; in the data set with Macrophage [22], 357 a.u; in the data set with Macrophage [23] it was 49233 a.u; in the data set with Macrophage [24], 115933 a.u. The Activity amounted to 67356 a.u in the data set with Macrophage [25], 40115 a.u in the data set with Macrophage [26], 4816 a.u with Macrophage [27] and 33 a.u in the data set with Macrophage [28].

Consider `O=C(O)CCNc1cc(N2CCc3ccccc3CC2)nc(-c2cccnc2)n1`, for which the XC50 in [2] was 50 µM; in data set [3] it was greater than 40 µM; in [4], greater than 32 µM; on Mu-type opioid receptor [5], 63 µM; at Mu-type opioid receptor [6] it was greater than 100 µM; in data set [7] it was 0.32 µM. Moreover, the XC50 at D(1A) dopamine receptor was greater than 32 µM; in data set [8] it was greater than 50 µM; in data set [9], greater than 40 µM; in [10] it was greater than 125 µM; at Adenosine receptor A2a, greater than 32 µM; at OATP1B1 (SLCO1B1), 20 µM.

For the compound `CCOC(=O)CCNc1cc(N2CCc3ccccc3CC2)nc(-c2ccccn2)n1`, the Activity in the data set on Macrophage [13] is on record as 641 a.u; in the data set on Macrophage [14], 153760 a.u; in the data set on Macrophage [15] it was 9 a.u; with Macrophage [16] it was 6284 a.u; in the data set on Macrophage [17] it was 267 a.u; with Macrophage [18], 3068 a.u. The Activity in the data set with Macrophage [19] came out at 304 a.u; in the data set with Macrophage [20], 3510 a.u; with Macrophage [21], 9678 a.u; in the data set on Macrophage [22] it was 650 a.u; in the data set on Macrophage [23], 50103 a.u; with Macrophage [24], 17105 a.u. Further, the Activity turned out to be 10602 a.u in the data set with Macrophage [25], 4562 a.u with Macrophage [26], 3422 a.u in the data set with Macrophage [27] and 360 a.u with Macrophage [28]. Moreover, the Drug metabolism in data set [29] came out at 11.8 µM.
